We go through 1 molecule from patent US8686050B2, “Diglycidic ether derivative therapeutics and methods for their use” (British Columbia Cancer Agency Branch, priority 2008, dated 2014).

The target in data set [1] is T1, AR (Homo sapiens, UniProt P10275, T878A).
T1 sequence (P10275 1-920 T878A): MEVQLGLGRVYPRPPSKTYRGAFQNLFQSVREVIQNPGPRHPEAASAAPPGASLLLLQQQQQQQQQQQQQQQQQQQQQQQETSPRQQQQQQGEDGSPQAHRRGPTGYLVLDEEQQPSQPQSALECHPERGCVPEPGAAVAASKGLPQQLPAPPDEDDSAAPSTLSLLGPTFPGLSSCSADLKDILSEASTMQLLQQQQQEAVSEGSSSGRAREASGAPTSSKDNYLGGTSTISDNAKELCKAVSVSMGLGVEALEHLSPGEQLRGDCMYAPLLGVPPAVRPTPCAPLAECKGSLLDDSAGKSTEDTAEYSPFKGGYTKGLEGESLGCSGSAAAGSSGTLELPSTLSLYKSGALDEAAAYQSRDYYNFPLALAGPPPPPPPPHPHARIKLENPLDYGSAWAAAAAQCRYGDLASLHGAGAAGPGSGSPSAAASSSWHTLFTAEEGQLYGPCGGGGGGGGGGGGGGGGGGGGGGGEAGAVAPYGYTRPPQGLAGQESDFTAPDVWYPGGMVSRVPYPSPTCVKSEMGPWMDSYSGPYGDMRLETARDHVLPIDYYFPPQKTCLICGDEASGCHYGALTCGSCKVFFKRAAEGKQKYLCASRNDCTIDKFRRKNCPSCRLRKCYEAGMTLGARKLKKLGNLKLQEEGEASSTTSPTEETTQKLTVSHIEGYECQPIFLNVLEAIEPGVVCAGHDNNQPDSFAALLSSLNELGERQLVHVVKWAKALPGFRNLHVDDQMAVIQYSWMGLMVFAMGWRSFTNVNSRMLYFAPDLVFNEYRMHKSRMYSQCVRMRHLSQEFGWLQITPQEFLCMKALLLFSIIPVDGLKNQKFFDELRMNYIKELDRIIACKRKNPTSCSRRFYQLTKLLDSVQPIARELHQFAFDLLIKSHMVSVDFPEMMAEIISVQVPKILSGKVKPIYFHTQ
Nature of the data set: Nuclear translocation of AR in LNCaP cells (fractionation, fluorescence microscopy). Type of data set: cell-based. Details: LNCaP cells express endogenous AR and secrete prostate-specific antigen (PSA); endogenous in cells; host or cells: LNCaP.

Another data set concerns PC3 xenografts. Nature of the data set: PC3 subcutaneous xenografts in non-castrated mice. It is filed as in vivo, NOD-SCID male mice. Conditions: 20 mg/kg body weight every 5 days, listed as PNG01-185-017-9-2, 20 mg/kg. On the procedure:
Six to eight-week old male athymic SCID mice were inoculated subcutaneously in the flank region via a 27-gauge needle with a 150 μl suspension of LNCaP or PC3 human prostate cancer cells (1×10^6 cells). The inoculations took place while the animal was under isofluorane anaesthesia. The tumor take rate is approximately 75%. Mice bearing tumors of 100 mm^3 were randomly assigned to treatment groups. Castration was performed as described below. Tumor volume (formula: L×W×H×0.5236) was measured in mice bearing LNCaP subcutaneous tumors that became palpable or visible and at least 40 mm^3. The animals were monitored daily and tumors were measured every 5 days.

A short description of data set [2]: General toxicity in xenograft-bearing mice (behavior, body weight, organ histology). On the procedure:
For routine histology, major organs and xenografts were harvested upon completion of the experiment and were fixed in 10% neutral buffered formalin and then embedded in paraffin. Fixed sections were cut and stained with H&E. To determine possible effects of compounds on the proliferation rates and apoptosis in xenografts, Ki-67 immunostaining and the TUNEL assay was performed. […] Levels of AR were determined by immunohistochemistry or Western blot analysis.
LNCaP human prostate cancer cells express endogenous androgen receptor (AR) and prostate-specific antigen (PSA), and progress to androgen independence in castrated hosts. LNCaP cells (10^6/ml) were implanted subcutaneously into NOD-SCID male mice that were at least 8 weeks in age. The cells were suspended in 75 μl of RPMI medium 1640 (5% FBS) with 75 μl of Matrigel and injected into the flank region of the host under anesthesia. […] A total of five doses were given to the animal. Tumor volume and body weight were measured every 5 days.
IHC data was prepared by a commercial lab that was blinded to treatments.
PC3 cells were implanted subcutaneously into NOD-SCID male mice. […] Animals were treated every 5 days with a subcutaneous dose of 20 mg/kg body weight of PNG01-185-017-9-2 or matching volume of vehicle (control, DMSO). Tumor volume and body weight were measured every 5 days.

The subject of another data set is PSA mRNA. Description: Endogenous PSA mRNA in LNCaP cells by QRT-PCR. It is filed as cell-based, human. Conditions: 185-9-2 5 μg/ml, R1881 1 nM 16 hours, normalized to GAPDH mRNA. On the procedure: Induction of PSA mRNA by both R1881 (ligand-dependent) and FSK (ligand-independent) in LNCaP cells is dependent upon AR (Sadar, M. D., J. Biol. Chem. 274, 7777-7783 (1999); Wang G, Jones S J, Marra M A, Sadar M D, Oncogene 2006; 25:7311-23.). To test whether the compounds have an effect on endogenous gene expression, the levels of PSA mRNA in LNCaP cells exposed to R1881 were measured. LNCaP cells (in serum-free and phenol-red free media) were incubated with compounds for 1 hour before the addition of R1881 (1 nM) for an additional 16 hours before harvesting and isolating total RNA. Levels of mRNA were measured using QPCR. Levels of PSA mRNA were normalized to levels of GAPDH mRNA.

The target of data set [3] is T1, AR. Nature of the data set: AR protein in harvested LNCaP xenografts (IHC, western blot). Type of data set: in vivo, mice. Further details: LNCaP human prostate cancer cells express endogenous androgen receptor (AR); from tissue; host or cells: LNCaP xenografts harvested from castrated NOD-SCID mice. Conditions: I.V. or I.T delivery. On the procedure: Levels of cytokeratin 18 were measured as an indication of amount of epithelial cells in the xenograft samples.
(In general: Immunoblotting shows a protein as a band on a membrane.)

Entries after “also recorded” stand apart in the source; their conditions may differ. Structures can show the parent of a compound that is named as a salt.

Consider `CC(C)(c1ccc(OCC(O)CO)cc1)c1ccc(OCC(O)CCl)cc1` (stereo not drawn) [185-9-2, BADGE.HCL.H2O], for which the “nuclear translocation of the AR in the absence of androgen” value at AR [1] (compound on its own) was “did not cause nuclear translocation of the AR”. For the same molecule, the “nuclear translocation of AR protein in response to androgen” value at AR [1] (pretreated 1 hr, 10 nM DHT) is reported as “nor did it prevent nuclear translocation of AR protein”. Moreover, in the data set on PC3 xenografts, the “PC3 xenograft tumor growth” value was “had a small effect on PC3 tumor growth but did not reduce tumor burden; also recorded: did not reduce tumors but did slightly slow the growth”. Further, the “body weight, LNCaP xenograft mice, intravenous” value in data set [2] (I.V. 50 mg/kg every other day) is “did not reduce body weight”. Besides, the “body weight, LNCaP xenograft mice, intratumoral” value in data set [2] (day 0 versus day 25) is listed as “did not reduce body weight”. The “pathology review of lung, heart, liver, spleen, and kidney” value in data set [2] (i.v. 50 mg/kg every other day, 5 injections, H&E) is “showed no signs of toxicity”. Further, in data set [2] (mouse, in vivo, iv), the “general toxicity indicated by animal behavior or body weight” value is given as “not to cause general toxicity”. Also, the “endogenous PSA mRNA induction by R1881” value in the data set on PSA mRNA is “to almost baseline levels; also recorded: inhibited endogenous PSA gene expression”. Moreover, at AR [3], the “levels of AR protein in xenografts” value was “does not reduce levels of AR protein; also recorded: did not decrease levels of AR protein”.
